Measured values from patent publication US10681909B2, “Herbicidal triazoles” (FMC Corporation, priority 2014, dated 2020).

Legend:
[1] = test system: pigweed; experiment: Test D preemergence; format: in vivo, Amaranthus retroflexus; details: for Plant response rating (0 to 100), Pigweed: 16 g ai/ha, 0 is no effect, 100 is complete control; for Plant response rating: Pigweed: scale 0 to 100
Source text: (§1) Seeds of plant species selected from bluegrass (annual bluegrass, Poa annua), blackgrass (Alopecurus myosuroides), canarygrass (Phalaris minor), chickweed (common chickweed, Stellaria media), galium (catchweed bedstraw, Galium aparine), bromegrass, down (downy bromegrass, Bromus tectorum), Russian thistle (Salsola kali), field poppy (Papaver rhoeas), field violet (Viola arvensis), foxtail, green (green foxtail, Setaria viridis), deadnettle (henbit deadnettle, Lamium amplexicaule), ryegrass, Ital. (Italian ryegrass, Lolium multiflorum), kochia (Kochia scoparia), lambsquarters (Chenopodium album), oilseed rape (Brassica napus), pigweed (Amaranthus retroflexus), chamomile (scentless chamomile, Matricaria inodora), speedwell (bird's-eye speedwell, Veronica persica), barley, spring (spring barley, Hordeum vulgare), wheat, spring (spring wheat, Triticum aestivum), buckwheat, wild (wild buckwheat, Polygonum convolvulus), wild mustard (Sinapis arvensis), oat, wild (wild oat, Avena fatua), radish, wild (wild radish, Raphanus raphanistrum), […]), barley, winter (winter barley, Hordeum vulgare), and wheat, winter (winter wheat, Triticum aestivum) were planted into a silt loam soil and treated preemergence with test chemicals formulated in a non-phytotoxic solvent mixture which included a surfactant. At the same time, these species were planted in pots containing Sunshine Redi-Earth® planting medium comprising spaghnum peat moss, vermiculite, starter nutrients and dolomitic limestone and treated with postemergence applications of the test chemicals formulated in the same manner. Plants ranged in height from 2 to 18 cm (1- to 4-leaf stage). Treated plants and controls were maintained in a controlled growth environment for 14 to 21 d after which time all species were compared to controls and visually evaluated. […] A dash (-) response means no test result.

[2] = test system: Russian thistle; experiment: Test D postemergence; format: in vivo, Salsola kali; details: scale 0 to 100
Source text: as §1

[3] = test system: kochia; experiment: Test D postemergence; format: in vivo, Kochia scoparia; details: scale 0 to 100
Source text: as §1

[4] = test system: field violet; experiment: Test D preemergence; format: in vivo, Viola arvensis; details: for Plant response rating (0 to 100), Field Violet: 16 g ai/ha, 0 is no effect, 100 is complete control; for Plant response rating: Field Violet: scale 0 to 100
Source text: as §1

[5] = test system: blackgrass; experiment: Test A postemergence; format: in vivo, Alopecurus myosuroides; details: 0 to 100 scale (0 no effect, 100 complete control), approx. 10 d
Summary of the method: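 Visual injury score, 0 (no effect) to 100 (complete control), taken about 10 d after treatment against untreated greenhouse controls. Chemicals formulated in non-phytotoxic solvent plus surfactant; preemergence by directed soil spray onto sown loam/sand, postemergence onto one- to two-leaf plants.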

[6] = test system: lambsquarters; experiment: Test D preemergence; format: in vivo, Chenopodium album; details: for Plant response rating (0 to 100), Lambsquarters: 16 g ai/ha, 0 is no effect, 100 is complete control; for Plant response rating: Lambsquarters: scale 0 to 100
Source text: as §1

[7] = test system: speedwell; experiment: Test D preemergence; format: in vivo, Veronica persica; details: for Plant response rating (0 to 100), Speedwell: 16 g ai/ha, 0 is no effect, 100 is complete control; for Plant response rating: Speedwell: scale 0 to 100
Source text: as §1

[8] = test system: oat, wild; experiment: Test D preemergence; format: in vivo, Avena fatua; details: for Plant response rating (0 to 100), Oat, Wild: 16 g ai/ha, 0 is no effect, 100 is complete control; for Plant response rating: Oat, Wild: scale 0 to 100
Source text: as §1

[9] = test system: pigweed; experiment: Test C preemergence; format: in vivo, Amaranthus retroflexus; details: for Plant response rating (scale of 0 to 100 where 0 is no effect and 100 is complete control): Pigweed, preemergence; for Pigweed plant response rating (0 to 100): Preemergence, visual rating after 13 to 15 d
Source text: (§2) Seeds of plant species selected from blackgrass (Alopecurus myosuroides), ryegrass, Italian (Italian ryegrass, Lolium multiflorum), wheat (winter wheat, Triticum aestivum), galium (catchweed bedstraw, Galium aparine), corn (Zea mays), crabgrass, large (large crabgrass, Digitaria sanguinalis), foxtail, giant, (giant foxtail, Setaria faberii), johnsongrass (Sorghum halepense), lambsquarters (Chenopodium album), morningglory (Ipomoea coccinea), nutsedge, yellow (yellow nutsedge, Cyperus esculentus), pigweed (Amaranthus retroflexus), ragweed (common ragweed, Ambrosia elatior), soybean (Glycine max), barnyardgrass (Echinochloa crus-galli), oilseed rape (Brassica napus), waterhemp (common waterhemp, Amaranthus rudis), and velvetleaf (Abutilon theophrasti) were planted into a blend of loam soil and sand and treated preemergence with test chemicals formulated in a non-phytotoxic solvent mixture which included a surfactant. At the same time, plants selected from these crop and weed species and also chickweed (common chickweed, Stellaria media), oat, wild (wild oat, Avena fatua), and kochia (Kochia scoparia), were planted in pots containing Sunshine Redi-Earth® planting medium comprising spaghnum peat moss, vermiculite, starter nutrients and dolomitic limestone and treated with postemergence applications of test chemicals formulated in the same manner. Plants ranged in height from 2 to 18 cm (1- to 4-leaf stage) for postemergence treatments. […] A dash (-) response means no test result.

[10] = test system: bromegrass, down; experiment: Test D postemergence; format: in vivo, Bromus tectorum; details: scale 0 to 100
Source text: as §1

[11] = test system: kochia; experiment: Test D preemergence; format: in vivo, Kochia scoparia; details: for Plant response rating (0 to 100), Kochia: 16 g ai/ha, 0 is no effect, 100 is complete control; for Plant response rating: Kochia: scale 0 to 100
Source text: as §1

[12] = test system: windgrass; experiment: Test D preemergence; format: in vivo, Apera spica-venti; details: for Plant response rating (0 to 100), Windgrass: 16 g ai/ha, 0 is no effect, 100 is complete control; for Plant response rating: Windgrass: scale 0 to 100
Source text: as §1

[13] = test system: windgrass; experiment: Test D postemergence; format: in vivo, Apera spica-venti; details: scale 0 to 100
Source text: as §1

[14] = test system: waterhemp; experiment: Test C preemergence; format: in vivo, Amaranthus rudis; details: for Waterhemp plant response rating (0 to 100): Preemergence, visual rating after 13 to 15 d; for Plant response rating (scale of 0 to 100 where 0 is no effect and 100 is complete control): Waterhemp, preemergence, 250 g ai/ha
Source text: as §2

CCOc1nc(-c2ccccc2)nn1Cc1ccnc(C(F)(F)F)c1 [Compound 27]
Plant response rating (0 to 100), Pigweed [1]: 100
Plant response rating: Pigweed ([1]; 62 g ai/ha): 100
Plant response rating: Pigweed ([1]; 125 g ai/ha): 100
Plant response rating: Russian Thistle ([2]; 16 g ai/ha): 75
Plant response rating: Russian Thistle ([2]; 31 g ai/ha): 80
Plant response rating: Russian Thistle ([2]; 62 g ai/ha): 85
Plant response rating: Russian Thistle ([2]; 125 g ai/ha): 85
Plant response rating: Kochia ([3]; 16 g ai/ha): 85
Plant response rating: Kochia ([3]; 31 g ai/ha): 95
Plant response rating: Kochia ([3]; 62 g ai/ha): 95
Plant response rating: Kochia ([3]; 125 g ai/ha): 100
Plant response rating (0 to 100), Field Violet [4]: 85
Plant response rating: Field Violet ([4]; 62 g ai/ha): 98
Plant response rating: Field Violet ([4]; 125 g ai/ha): 100
Plant response rating, Blackgrass ([5]; 125 g ai/ha): 70
Plant response rating, Blackgrass ([5]; 500 g ai/ha): 80
Plant response rating (0 to 100), Lambsquarters [6]: 85
Plant response rating: Lambsquarters ([6]; 62 g ai/ha): 95
Plant response rating: Lambsquarters ([6]; 125 g ai/ha): 95
Plant response rating (0 to 100), Speedwell [7]: 95
Plant response rating: Speedwell ([7]; 62 g ai/ha): 100
Plant response rating: Speedwell ([7]; 125 g ai/ha): 100
Plant response rating (0 to 100), Oat, Wild [8]: 25
Plant response rating: Oat, Wild ([8]; 62 g ai/ha): 45
Plant response rating: Oat, Wild ([8]; 125 g ai/ha): 75
Plant response rating (scale of 0 to 100 where 0 is no effect and 100 is complete control) ([9]; 125 g ai/ha): 100
Plant response rating (scale of 0 to 100 where 0 is no effect and 100 is complete control) ([9]; 250 g ai/ha): 100
Pigweed plant response rating (0 to 100) ([9]; 31 g ai/ha): 100
Pigweed plant response rating (0 to 100) ([9]; 62 g ai/ha): 100
Plant response rating: Bromegrass, Down ([10]; 16 g ai/ha): 25
Plant response rating: Bromegrass, Down ([10]; 31 g ai/ha): 30
Plant response rating: Bromegrass, Down ([10]; 62 g ai/ha): 50
Plant response rating: Bromegrass, Down ([10]; 125 g ai/ha): 65
Plant response rating (0 to 100), Kochia [11]: 85
Plant response rating: Kochia ([11]; 62 g ai/ha): 95
Plant response rating: Kochia ([11]; 125 g ai/ha): 100
Plant response rating (0 to 100), Windgrass [12]: 5
Plant response rating: Windgrass ([12]; 62 g ai/ha): 80
Plant response rating: Windgrass ([12]; 125 g ai/ha): 95
Plant response rating: Windgrass ([13]; 16 g ai/ha): 60
Plant response rating: Windgrass ([13]; 31 g ai/ha): 65
Plant response rating: Windgrass ([13]; 62 g ai/ha): 70
Plant response rating: Windgrass ([13]; 125 g ai/ha): 70
Waterhemp plant response rating (0 to 100) ([14]; 31 g ai/ha): 100
Waterhemp plant response rating (0 to 100) ([14]; 62 g ai/ha): 100
Plant response rating (scale of 0 to 100 where 0 is no effect and 100 is complete control) [14]: 100

FC(F)(F)COc1nc(-c2ccc(Cl)cc2)nn1Cc1ccnc(C(F)(F)F)c1 [Compound 31]
Plant response rating (0 to 100), Pigweed [1]: 100
Plant response rating: Pigweed ([1]; 62 g ai/ha): 100
Plant response rating: Pigweed ([1]; 125 g ai/ha): 100
Plant response rating: Russian Thistle ([2]; 16 g ai/ha): 70
Plant response rating: Russian Thistle ([2]; 31 g ai/ha): 80
Plant response rating: Russian Thistle ([2]; 62 g ai/ha): 85
Plant response rating: Russian Thistle ([2]; 125 g ai/ha): 90
Plant response rating: Kochia ([3]; 16 g ai/ha): 80
Plant response rating: Kochia ([3]; 31 g ai/ha): 85
Plant response rating: Kochia ([3]; 62 g ai/ha): 90
Plant response rating: Kochia ([3]; 125 g ai/ha): 95
Plant response rating (0 to 100), Field Violet [4]: 95
Plant response rating: Field Violet ([4]; 62 g ai/ha): 100
Plant response rating: Field Violet ([4]; 125 g ai/ha): 100
Plant response rating, Blackgrass ([5]; 125 g ai/ha): 50
Plant response rating, Blackgrass ([5]; 500 g ai/ha): 80
Plant response rating (0 to 100), Lambsquarters [6]: 75
Plant response rating: Lambsquarters ([6]; 62 g ai/ha): 85
Plant response rating: Lambsquarters ([6]; 125 g ai/ha): 90
Plant response rating (0 to 100), Speedwell [7]: 100
Plant response rating: Speedwell ([7]; 62 g ai/ha): 100
Plant response rating: Speedwell ([7]; 125 g ai/ha): 100
Plant response rating (0 to 100), Oat, Wild [8]: 35
Plant response rating: Oat, Wild ([8]; 62 g ai/ha): 55
Plant response rating: Oat, Wild ([8]; 125 g ai/ha): 75
Plant response rating (scale of 0 to 100 where 0 is no effect and 100 is complete control) ([9]; 125 g ai/ha): 100
Plant response rating (scale of 0 to 100 where 0 is no effect and 100 is complete control) ([9]; 250 g ai/ha): 100
Pigweed plant response rating (0 to 100) ([9]; 31 g ai/ha): 98
Pigweed plant response rating (0 to 100) ([9]; 62 g ai/ha): 100
Plant response rating: Bromegrass, Down ([10]; 16 g ai/ha): 25
Plant response rating: Bromegrass, Down ([10]; 31 g ai/ha): 45
Plant response rating: Bromegrass, Down ([10]; 62 g ai/ha): 50
Plant response rating: Bromegrass, Down ([10]; 125 g ai/ha): 70
Plant response rating (0 to 100), Kochia [11]: 80
Plant response rating: Kochia ([11]; 62 g ai/ha): 90
Plant response rating: Kochia ([11]; 125 g ai/ha): 95
Plant response rating (0 to 100), Windgrass [12]: 60
Plant response rating: Windgrass ([12]; 62 g ai/ha): 100
Plant response rating: Windgrass ([12]; 125 g ai/ha): 100
Plant response rating: Windgrass ([13]; 16 g ai/ha): 60
Plant response rating: Windgrass ([13]; 31 g ai/ha): 70
Plant response rating: Windgrass ([13]; 62 g ai/ha): 75
Plant response rating: Windgrass ([13]; 125 g ai/ha): 80
Waterhemp plant response rating (0 to 100) ([14]; 31 g ai/ha): 100
Waterhemp plant response rating (0 to 100) ([14]; 62 g ai/ha): 100
Plant response rating (scale of 0 to 100 where 0 is no effect and 100 is complete control) [14]: 100
